In ChEMBL document CHEMBL6134930, “Discovery of AB801, a Potent and Selective Inhibitor of AXL Receptor Tyrosine Kinase for Use in Cancer Therapy” (J Med Chem, 2025):
Active and inactive are the calls of the source. No cut-off for these calls is given here.

Columns and labels:
[1] = Metabolic stability in rat hepatocytes assessed as intrinsic clearance measured per 10^6 cells; format: ADME, cell-based, Hepatocyte; conditions: read-out: CLH
[2] = Metabolic stability in human hepatocytes assessed as intrinsic clearance measured per 10^6 cells; format: ADME, cell-based, Hepatocyte; conditions: read-out: CLH
[3] = Clearance in Beagle dog at 0.5 mg/kg, iv measured up to 24 hrs by LC-MS/MS analysis; format: ADME, organism-based, Canis lupus familiaris; conditions: in vivo
[4] = biological target: T1, CYP1A2 (Homo sapiens, UniProt P05177); assay: Time dependent inhibition of CYP1A2 (unknown origin) at 30 uM measured after 30 mins relative to control; format: ADME; conditions: read-out: TDI
T1 sequence (P05177 whole entry): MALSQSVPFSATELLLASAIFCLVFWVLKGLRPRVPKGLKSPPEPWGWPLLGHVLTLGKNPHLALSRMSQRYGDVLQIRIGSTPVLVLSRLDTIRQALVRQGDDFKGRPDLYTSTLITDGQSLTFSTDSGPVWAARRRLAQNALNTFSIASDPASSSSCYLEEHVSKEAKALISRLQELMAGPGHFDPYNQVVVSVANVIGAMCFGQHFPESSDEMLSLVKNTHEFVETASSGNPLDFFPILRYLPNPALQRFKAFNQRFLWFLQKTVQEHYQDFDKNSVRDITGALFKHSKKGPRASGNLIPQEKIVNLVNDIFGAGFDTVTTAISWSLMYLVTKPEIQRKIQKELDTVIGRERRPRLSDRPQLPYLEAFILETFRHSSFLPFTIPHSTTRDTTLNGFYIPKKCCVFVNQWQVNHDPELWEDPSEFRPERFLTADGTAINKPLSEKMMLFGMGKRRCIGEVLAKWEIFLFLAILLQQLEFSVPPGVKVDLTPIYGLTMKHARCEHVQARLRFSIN

[5] = biological target: T2, CYP2B6 (Homo sapiens, UniProt P20813); assay: Time dependent inhibition of CYP2B6 (unknown origin) at 30 uM measured after 30 mins relative to control; format: ADME; conditions: read-out: TDI
T2 sequence (P20813 whole entry): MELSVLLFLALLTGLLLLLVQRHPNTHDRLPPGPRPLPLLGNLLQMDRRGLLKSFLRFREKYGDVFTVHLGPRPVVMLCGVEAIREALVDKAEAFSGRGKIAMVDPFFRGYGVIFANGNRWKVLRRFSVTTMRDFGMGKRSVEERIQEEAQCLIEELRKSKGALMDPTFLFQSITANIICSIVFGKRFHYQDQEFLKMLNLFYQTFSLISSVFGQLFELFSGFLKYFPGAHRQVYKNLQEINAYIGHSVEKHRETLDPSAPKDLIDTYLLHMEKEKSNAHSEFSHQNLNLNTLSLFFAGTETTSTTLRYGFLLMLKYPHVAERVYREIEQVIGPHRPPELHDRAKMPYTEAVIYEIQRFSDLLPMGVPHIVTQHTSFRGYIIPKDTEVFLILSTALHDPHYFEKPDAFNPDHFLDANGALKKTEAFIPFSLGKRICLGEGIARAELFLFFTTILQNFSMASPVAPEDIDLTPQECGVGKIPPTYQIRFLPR

[6] = biological target: T3, CYP2C8 (Homo sapiens, UniProt P10632); assay: Time dependent inhibition of CYP2C8 (unknown origin) at 30 uM measured after 30 mins relative to control; format: ADME; conditions: read-out: TDI
T3 sequence (P10632 whole entry): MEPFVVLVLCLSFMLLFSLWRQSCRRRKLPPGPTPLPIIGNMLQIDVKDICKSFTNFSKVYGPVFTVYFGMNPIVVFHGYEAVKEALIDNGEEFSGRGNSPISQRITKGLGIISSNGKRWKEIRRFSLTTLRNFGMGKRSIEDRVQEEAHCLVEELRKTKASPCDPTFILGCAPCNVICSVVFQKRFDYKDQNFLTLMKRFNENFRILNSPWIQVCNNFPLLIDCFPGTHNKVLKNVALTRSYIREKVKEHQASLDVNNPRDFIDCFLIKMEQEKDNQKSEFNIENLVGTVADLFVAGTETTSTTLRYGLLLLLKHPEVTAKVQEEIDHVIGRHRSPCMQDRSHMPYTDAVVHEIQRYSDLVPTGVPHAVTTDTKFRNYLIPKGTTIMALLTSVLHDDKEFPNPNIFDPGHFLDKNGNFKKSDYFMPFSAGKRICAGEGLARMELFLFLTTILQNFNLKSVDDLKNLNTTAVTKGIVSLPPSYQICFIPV

[7] = biological target: CYP2C19 (Homo sapiens, UniProt P33261); assay: Time dependent inhibition of CYP2C19 (unknown origin) at 30 uM measured after 30 mins relative to control; format: ADME; conditions: read-out: TDI
[8] = biological target: T4, Cytochrome P450 2C8 (Homo sapiens, UniProt P10632); assay: Inhibition of CYP2C8 (unknown origin) measured after 30 mins; format: ADME
T4 sequence (P10632 whole entry): T3 sequence (P10632 whole entry)

[9] = Selectivity ratio, ratio of Ki for DRAK1 (unknown origin) to Ki for AXL (unknown origin)
[10] = Selectivity ratio, ratio of Ki for TRKA (unknown origin) to Ki for AXL (unknown origin)
[11] = test system: 786-0; assay: Anti-tumor activity against human 786-0 cells xenografted in mouse model assessed as tumor growth inhibition at 10 mg/kg, po once daily for 15 days; format: functional, organism-based; conditions: time 15.0 day
[12] = test system: 786-0; assay: Anti-tumor activity against human 786-0 cells xenografted in mouse model assessed as tumor growth inhibition in presence of sunitinib at 30 mg/kg, po once daily for 15 days; format: functional, organism-based; conditions: time 15.0 day
[13] = test system: 786-0; assay: Anti-tumor activity against human 786-0 cells xenografted in mouse model assessed as reduction in tumor volume in presence of sunitinib at 30 mg/kg, po once daily for 15 days; format: functional, organism-based; conditions: time 15.0 day
[14] = Toxicity in mouse xenografted with human 786-0 cells assessed as body weight in presence of sunitinib at 30 mg/kg, po once daily for 15 days; format: organism-based; conditions: in vivo, 360 h, time 15 day
[15] = Toxicity in mouse xenografted with human 786-0 cells assessed as body weight in presence of sunitinib at 10 mg/kg, po once daily for 15 days; format: organism-based; conditions: in vivo, 360 h, time 15 day
[16] = Half life in human (healthy individuals) at 270 mg, single oral dose; format: ADME; conditions: in vivo
[17] = Tmax in human (healthy individuals) at 10 mg, single oral dose; format: ADME; conditions: in vivo
[18] = AUC (0 to 24 hrs) in human (healthy individuals) at 30 mg, single oral dose; format: ADME; conditions: in vivo
[19] = AUC (0 to 24 hrs) in human (healthy individuals) at 90 mg, single oral dose; format: ADME; conditions: in vivo

Sequence of CYP2C19 (P33261 whole entry): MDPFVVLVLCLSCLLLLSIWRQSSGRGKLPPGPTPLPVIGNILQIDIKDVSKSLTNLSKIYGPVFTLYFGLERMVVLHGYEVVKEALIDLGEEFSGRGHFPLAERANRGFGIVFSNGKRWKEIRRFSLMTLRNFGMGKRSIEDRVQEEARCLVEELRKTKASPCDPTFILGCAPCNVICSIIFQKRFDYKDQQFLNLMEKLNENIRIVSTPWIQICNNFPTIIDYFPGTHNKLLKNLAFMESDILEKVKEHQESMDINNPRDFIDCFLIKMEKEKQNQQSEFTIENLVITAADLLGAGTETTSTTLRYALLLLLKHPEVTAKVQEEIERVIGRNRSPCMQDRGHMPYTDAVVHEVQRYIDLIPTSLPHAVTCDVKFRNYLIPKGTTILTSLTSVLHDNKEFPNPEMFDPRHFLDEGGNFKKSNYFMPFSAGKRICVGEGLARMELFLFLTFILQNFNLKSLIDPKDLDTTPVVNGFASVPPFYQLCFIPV

Cc1cccnc1-c1ccc(-c2n[nH]c3ncc(-c4ccc5c(c4)CC[C@@H](N4C6COCC4C6)CC5)cc23)nc1
hepatocyte CLint [1]: 20 µL/min/1e6 cells | hepatocyte CLint [2]: 1.8 µL/min/1e6 cells | clearance [3]: 25 mL/min/kg | inhibition at 0.5 h, 30 µM [4]: 0% | inhibition at 0.5 h, 30 µM [5]: 12% | inhibition at 0.5 h, 30 µM [6]: 0% | inhibition at 0.5 h, 30 µM [7]: 4.1% | IC50 [8]: 17 µM | Ratio Ki [9]: 47 | Ratio Ki [10]: 330 | Activity [11]: inactive | Activity [12]: Active | Activity [13]: Active | Activity [14]: Non-toxic | Activity [15]: Non-toxic | half-life [16]: 40 h | Tmax [17]: 6 h | AUC(0-t) [18]: 189 ng·h/mL | AUC(0-t) [19]: 707 ng·h/mL
